Test results as given in paper PMC4979471 (Cell Death Discovery, 2015).
Like-named read-outs stand apart in the source and are kept apart here.

Tests used:
Experiment in all cases: Kinase selectivity, P33-radiolabeled assay
Type in all cases: biochemical
Conditions in all cases: 10 μM ATP
BMX/ETK = biological target: T1, BMX/ETK (Homo sapiens, UniProt P51813)
T1 construct: purchased Reaction Biology Corp
T1 sequence (P51813 1-675): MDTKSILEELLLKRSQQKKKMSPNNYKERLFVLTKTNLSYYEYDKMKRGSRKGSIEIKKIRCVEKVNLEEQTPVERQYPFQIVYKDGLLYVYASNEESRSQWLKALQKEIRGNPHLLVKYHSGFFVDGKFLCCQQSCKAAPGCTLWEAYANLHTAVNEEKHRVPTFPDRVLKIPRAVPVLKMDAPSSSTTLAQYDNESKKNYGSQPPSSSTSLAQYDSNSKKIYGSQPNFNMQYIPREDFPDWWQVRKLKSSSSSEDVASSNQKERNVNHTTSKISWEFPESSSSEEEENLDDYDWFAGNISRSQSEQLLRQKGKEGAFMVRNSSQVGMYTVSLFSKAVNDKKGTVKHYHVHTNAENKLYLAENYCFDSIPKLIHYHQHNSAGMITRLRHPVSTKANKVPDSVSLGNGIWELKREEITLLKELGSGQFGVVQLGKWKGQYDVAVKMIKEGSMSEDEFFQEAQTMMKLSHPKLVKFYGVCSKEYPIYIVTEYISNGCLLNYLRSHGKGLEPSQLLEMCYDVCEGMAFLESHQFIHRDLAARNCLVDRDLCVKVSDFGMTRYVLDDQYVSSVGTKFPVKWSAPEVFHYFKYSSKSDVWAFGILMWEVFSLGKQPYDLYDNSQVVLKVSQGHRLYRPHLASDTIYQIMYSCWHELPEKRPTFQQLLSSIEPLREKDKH
How it was run: (§1)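 Each enzyme was exposed to 10 μM compound, with duplicate measurements, in reactions containing 10 μM ATP. Numbers are remaining activity as a percent of the vehicle (DMSO) signal.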

BRK = biological target: T2, BRK (Homo sapiens, UniProt Q13882)
T2 construct: purchased Reaction Biology Corp
T2 sequence (Q13882 whole entry): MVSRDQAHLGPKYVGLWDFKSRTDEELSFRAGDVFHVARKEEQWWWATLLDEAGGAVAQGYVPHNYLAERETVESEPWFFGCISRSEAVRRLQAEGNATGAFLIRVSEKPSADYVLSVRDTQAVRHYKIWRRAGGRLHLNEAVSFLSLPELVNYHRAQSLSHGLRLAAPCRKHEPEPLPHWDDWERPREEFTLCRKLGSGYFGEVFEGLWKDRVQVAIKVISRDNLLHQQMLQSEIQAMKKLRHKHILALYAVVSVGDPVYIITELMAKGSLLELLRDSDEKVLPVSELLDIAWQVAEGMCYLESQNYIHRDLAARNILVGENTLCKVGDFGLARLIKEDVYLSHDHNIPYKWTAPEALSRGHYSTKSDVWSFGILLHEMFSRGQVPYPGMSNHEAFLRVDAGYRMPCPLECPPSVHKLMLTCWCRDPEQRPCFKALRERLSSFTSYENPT
How it was run: as §1

CLK3 = biological target: T3, CLK3 (Homo sapiens, UniProt P49761)
T3 construct: purchased Reaction Biology Corp
T3 sequence (P49761 whole entry): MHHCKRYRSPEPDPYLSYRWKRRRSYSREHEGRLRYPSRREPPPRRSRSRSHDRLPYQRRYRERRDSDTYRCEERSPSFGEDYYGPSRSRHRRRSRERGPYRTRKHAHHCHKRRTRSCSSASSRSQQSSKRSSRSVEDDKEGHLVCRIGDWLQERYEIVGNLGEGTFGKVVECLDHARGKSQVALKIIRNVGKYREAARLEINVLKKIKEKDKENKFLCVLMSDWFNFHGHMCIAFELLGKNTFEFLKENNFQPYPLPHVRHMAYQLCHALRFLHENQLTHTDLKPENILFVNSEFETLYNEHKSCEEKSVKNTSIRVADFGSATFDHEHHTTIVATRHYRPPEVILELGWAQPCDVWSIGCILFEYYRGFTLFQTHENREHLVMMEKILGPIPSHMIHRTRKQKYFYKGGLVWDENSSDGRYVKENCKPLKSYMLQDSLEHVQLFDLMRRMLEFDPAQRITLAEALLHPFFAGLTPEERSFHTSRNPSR
How it was run: as §1

DYRK1/DYRK1A = biological target: T4, DYRK1/DYRK1A (Homo sapiens, UniProt Q13627)
T4 construct: purchased Reaction Biology Corp
How it was run: as §1

ERK5/MAPK7 = biological target: T5, ERK5/MAPK7 (Homo sapiens, UniProt Q13164)
T5 construct: purchased Reaction Biology Corp
T5 sequence (Q13164 whole entry): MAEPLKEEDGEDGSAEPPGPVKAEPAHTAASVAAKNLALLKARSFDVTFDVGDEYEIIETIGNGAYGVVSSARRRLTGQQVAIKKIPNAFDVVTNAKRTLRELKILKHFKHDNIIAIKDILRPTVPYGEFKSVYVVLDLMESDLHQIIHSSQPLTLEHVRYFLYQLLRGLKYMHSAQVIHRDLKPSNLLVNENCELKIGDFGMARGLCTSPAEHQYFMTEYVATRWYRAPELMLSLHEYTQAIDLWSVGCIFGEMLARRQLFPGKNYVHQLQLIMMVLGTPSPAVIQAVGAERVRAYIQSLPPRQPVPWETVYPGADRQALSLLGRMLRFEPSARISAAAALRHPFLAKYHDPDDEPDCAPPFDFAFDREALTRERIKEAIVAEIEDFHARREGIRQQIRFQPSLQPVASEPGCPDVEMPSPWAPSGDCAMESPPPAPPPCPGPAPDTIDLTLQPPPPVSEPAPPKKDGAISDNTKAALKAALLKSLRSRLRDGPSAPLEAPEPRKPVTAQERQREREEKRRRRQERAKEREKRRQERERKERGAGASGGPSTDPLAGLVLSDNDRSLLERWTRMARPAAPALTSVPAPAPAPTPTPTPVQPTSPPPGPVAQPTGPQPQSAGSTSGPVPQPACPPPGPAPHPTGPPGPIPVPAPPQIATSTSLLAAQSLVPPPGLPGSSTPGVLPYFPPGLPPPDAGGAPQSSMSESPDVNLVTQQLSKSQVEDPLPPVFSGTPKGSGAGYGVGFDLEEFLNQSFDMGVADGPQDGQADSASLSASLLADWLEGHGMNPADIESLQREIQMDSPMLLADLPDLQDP
How it was run: as §1

FGFR2 = biological target: T6, FGFR2 (Homo sapiens, UniProt P21802)
T6 construct: purchased Reaction Biology Corp
T6 sequence (P21802 22-821): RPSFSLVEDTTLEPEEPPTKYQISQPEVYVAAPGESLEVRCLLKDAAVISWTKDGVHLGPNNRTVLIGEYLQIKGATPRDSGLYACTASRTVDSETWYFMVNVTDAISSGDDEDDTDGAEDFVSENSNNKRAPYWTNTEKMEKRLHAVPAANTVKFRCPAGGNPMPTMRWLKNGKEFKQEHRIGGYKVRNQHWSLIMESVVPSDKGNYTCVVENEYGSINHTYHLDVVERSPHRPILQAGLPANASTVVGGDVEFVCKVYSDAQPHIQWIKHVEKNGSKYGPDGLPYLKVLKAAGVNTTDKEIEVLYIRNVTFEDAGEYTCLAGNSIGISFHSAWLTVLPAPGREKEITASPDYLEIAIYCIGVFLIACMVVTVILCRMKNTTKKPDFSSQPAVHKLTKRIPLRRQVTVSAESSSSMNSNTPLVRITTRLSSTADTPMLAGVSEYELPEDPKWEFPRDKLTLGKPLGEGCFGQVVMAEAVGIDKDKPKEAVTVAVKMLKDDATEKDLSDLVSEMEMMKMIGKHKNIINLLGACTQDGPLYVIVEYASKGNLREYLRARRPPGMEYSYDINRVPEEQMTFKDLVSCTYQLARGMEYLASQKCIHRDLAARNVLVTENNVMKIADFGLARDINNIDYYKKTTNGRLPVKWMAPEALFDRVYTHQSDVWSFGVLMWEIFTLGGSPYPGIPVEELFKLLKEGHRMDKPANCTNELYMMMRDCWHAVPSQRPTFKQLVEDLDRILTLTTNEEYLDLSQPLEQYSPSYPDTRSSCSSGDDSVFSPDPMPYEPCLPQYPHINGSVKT
How it was run: as §1

IKKa/CHUK = biological target: T7, IKKa/CHUK (Homo sapiens, UniProt O15111)
T7 construct: purchased Reaction Biology Corp
T7 sequence (O15111 1-745): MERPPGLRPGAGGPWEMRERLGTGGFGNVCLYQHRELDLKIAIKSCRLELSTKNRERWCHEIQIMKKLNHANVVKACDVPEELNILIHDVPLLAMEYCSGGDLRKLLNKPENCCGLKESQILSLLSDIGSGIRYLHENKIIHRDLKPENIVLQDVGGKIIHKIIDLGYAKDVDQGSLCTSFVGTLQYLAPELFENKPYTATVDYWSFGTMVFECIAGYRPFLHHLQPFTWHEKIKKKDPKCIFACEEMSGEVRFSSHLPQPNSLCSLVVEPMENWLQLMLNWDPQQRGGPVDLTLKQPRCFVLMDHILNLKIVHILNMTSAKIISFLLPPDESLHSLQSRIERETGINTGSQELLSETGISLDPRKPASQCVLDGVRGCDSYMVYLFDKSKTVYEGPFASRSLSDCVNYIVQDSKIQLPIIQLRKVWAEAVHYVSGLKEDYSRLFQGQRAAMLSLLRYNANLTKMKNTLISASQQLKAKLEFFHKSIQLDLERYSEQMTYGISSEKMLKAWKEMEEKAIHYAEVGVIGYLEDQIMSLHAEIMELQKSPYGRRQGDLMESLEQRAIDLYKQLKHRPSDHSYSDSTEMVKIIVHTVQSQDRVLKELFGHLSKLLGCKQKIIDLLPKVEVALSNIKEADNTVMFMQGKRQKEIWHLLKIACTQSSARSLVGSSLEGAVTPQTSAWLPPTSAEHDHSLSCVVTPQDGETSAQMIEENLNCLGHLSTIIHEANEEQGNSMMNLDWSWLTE
How it was run: as §1

MSSK1/STK23 = biological target: T8, MSSK1/STK23 (Homo sapiens, UniProt Q9UPE1)
T8 construct: purchased Reaction Biology Corp
T8 sequence (Q9UPE1 whole entry): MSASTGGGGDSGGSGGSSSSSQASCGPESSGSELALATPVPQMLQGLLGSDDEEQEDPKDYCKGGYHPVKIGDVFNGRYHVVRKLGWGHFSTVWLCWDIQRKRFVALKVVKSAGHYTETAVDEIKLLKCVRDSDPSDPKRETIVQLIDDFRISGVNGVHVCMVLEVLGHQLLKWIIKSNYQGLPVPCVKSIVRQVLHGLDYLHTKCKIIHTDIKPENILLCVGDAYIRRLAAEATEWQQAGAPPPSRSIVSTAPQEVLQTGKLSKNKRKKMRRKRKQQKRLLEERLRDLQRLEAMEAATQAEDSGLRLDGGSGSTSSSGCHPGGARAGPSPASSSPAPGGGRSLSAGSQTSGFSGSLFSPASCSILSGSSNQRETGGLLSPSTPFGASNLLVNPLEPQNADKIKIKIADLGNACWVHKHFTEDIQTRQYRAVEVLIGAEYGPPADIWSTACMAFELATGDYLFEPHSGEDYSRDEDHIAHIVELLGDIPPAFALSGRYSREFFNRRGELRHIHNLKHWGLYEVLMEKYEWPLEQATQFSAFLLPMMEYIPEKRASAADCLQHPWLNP
How it was run: as §1

MST3/STK24 = biological target: T9, MST3/STK24 (Homo sapiens, UniProt Q9Y6E0)
T9 construct: purchased Reaction Biology Corp
T9 sequence (Q9Y6E0 whole entry): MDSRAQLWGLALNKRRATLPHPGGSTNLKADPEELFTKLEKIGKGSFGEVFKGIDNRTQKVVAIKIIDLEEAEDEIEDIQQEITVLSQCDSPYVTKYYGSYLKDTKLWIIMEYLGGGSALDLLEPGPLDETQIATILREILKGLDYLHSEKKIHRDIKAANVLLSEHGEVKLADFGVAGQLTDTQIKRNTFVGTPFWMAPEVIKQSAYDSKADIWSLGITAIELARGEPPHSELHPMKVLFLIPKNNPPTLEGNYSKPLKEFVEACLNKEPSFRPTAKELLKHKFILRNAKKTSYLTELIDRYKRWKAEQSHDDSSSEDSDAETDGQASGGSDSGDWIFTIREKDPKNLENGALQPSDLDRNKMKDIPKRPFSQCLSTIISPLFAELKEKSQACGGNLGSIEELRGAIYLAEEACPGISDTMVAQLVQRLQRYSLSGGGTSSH
How it was run: as §1

P38g = biological target: T10, P38g (Homo sapiens, UniProt P53778)
T10 construct: purchased Reaction Biology Corp
T10 sequence (P53778 1-367): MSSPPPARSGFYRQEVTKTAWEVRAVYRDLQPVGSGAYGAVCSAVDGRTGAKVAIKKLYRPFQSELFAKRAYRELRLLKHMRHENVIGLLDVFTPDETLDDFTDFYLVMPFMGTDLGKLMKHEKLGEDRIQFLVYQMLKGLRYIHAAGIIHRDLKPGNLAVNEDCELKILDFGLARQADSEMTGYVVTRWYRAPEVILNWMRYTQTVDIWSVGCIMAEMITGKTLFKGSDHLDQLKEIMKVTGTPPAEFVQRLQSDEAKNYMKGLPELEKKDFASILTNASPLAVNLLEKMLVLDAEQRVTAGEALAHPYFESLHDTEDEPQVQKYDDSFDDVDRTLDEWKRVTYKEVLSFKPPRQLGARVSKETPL
How it was run: as §1

[1] = read-out: % Enzyme Activity (relative to DMSO controls) AVG
[2] = read-out: % Enzyme Activity (relative to DMSO controls) Data 1
[3] = read-out: % Enzyme Activity (relative to DMSO controls) Data 2

CC(C)(C)C(=O)N1N=CC[C@H]1c1ccccc1 [GSK′963]
remaining activity at 10 µM (BMX/ETK; [1]): 99.9%
remaining activity at 10 µM (BMX/ETK; [2]): 94.5%
remaining activity at 10 µM (BMX/ETK; [3]): 105%
remaining activity at 10 µM (BRK; [1]): 93.2%
remaining activity at 10 µM (BRK; [2]): 96.2%
remaining activity at 10 µM (BRK; [3]): 90.2%
remaining activity at 10 µM (CLK3; [1]): 107%
remaining activity at 10 µM (CLK3; [2]): 109%
remaining activity at 10 µM (CLK3; [3]): 105%
remaining activity at 10 µM (DYRK1/DYRK1A; [1]): 103%
remaining activity at 10 µM (DYRK1/DYRK1A; [2]): 103%
remaining activity at 10 µM (DYRK1/DYRK1A; [3]): 103%
remaining activity at 10 µM (ERK5/MAPK7; [1]): 97.8%
remaining activity at 10 µM (ERK5/MAPK7; [2]): 95.5%
remaining activity at 10 µM (ERK5/MAPK7; [3]): 100%
remaining activity at 10 µM (FGFR2; [1]): 110%
remaining activity at 10 µM (FGFR2; [2]): 108%
remaining activity at 10 µM (FGFR2; [3]): 112%
remaining activity at 10 µM (IKKa/CHUK; [1]): 89.5%
remaining activity at 10 µM (IKKa/CHUK; [2]): 91.1%
remaining activity at 10 µM (IKKa/CHUK; [3]): 88%
remaining activity at 10 µM (MSSK1/STK23; [1]): 107%
remaining activity at 10 µM (MSSK1/STK23; [2]): 108%
remaining activity at 10 µM (MSSK1/STK23; [3]): 105%
remaining activity at 10 µM (MST3/STK24; [1]): 87.4%
remaining activity at 10 µM (MST3/STK24; [2]): 87.3%
remaining activity at 10 µM (MST3/STK24; [3]): 87.5%
remaining activity at 10 µM (P38g; [1]): 101%
remaining activity at 10 µM (P38g; [2]): 103%
remaining activity at 10 µM (P38g; [3]): 98.7%
